Measured values reported in patent US20250320203A1, “4-(3H-PYRAZOLO[4,3-F]QUINOLIN-7-YL)-N-(2-(DIMETHYLAMINO)ETHYL)BENZAMIDE- OR HYDROXAMIC ACID COMPOUNDS, COMPOSITIONS, AND METHODS OF USE” (Purdue Research Foundation, priority 2022, published 2025).

What was measured:
[1] = target: T1, haspin (Homo sapiens, UniProt Q8TF76); assay: ADP Glo Kinase Assay, haspin, 50 nM inhibitor; format: biochemical; details: 50 nM inhibitor conc.; means of triplicates; read-out: Percent Inhibition (%) Haspin
T1 sequence (Q8TF76 1-798): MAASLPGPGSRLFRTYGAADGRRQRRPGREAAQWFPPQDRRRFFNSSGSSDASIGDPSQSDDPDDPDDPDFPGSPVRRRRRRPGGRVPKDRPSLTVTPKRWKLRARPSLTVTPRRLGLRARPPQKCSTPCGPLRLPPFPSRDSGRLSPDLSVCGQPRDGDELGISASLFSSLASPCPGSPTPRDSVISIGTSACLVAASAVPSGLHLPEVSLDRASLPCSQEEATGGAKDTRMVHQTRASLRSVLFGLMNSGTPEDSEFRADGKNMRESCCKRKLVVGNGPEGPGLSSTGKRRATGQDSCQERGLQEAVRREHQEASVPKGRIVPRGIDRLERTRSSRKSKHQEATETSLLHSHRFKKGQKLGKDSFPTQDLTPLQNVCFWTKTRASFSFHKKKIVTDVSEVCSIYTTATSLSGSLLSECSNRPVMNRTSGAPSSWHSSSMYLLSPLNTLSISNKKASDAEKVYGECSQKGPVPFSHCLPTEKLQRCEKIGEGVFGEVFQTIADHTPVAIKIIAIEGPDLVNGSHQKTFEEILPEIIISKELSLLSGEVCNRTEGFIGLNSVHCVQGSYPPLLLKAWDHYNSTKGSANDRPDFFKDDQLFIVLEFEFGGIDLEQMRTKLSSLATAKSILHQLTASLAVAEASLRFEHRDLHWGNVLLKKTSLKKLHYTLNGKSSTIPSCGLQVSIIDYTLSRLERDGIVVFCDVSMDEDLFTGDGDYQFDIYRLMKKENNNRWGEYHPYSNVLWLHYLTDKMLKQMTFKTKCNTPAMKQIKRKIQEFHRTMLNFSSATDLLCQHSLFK
Experimental: (§1) With the amide kinase inhibitor library established, kinase inhibition and AML cell line (Molm-14, which harbors FLT3-ITD) growth inhibition were analyzed (Table 1). More specifically, Haspin and FLT3 inhibition were evaluated in-house via ADP Glo Kinase Assay (Promega, Madison, WI). […] Values reported are means of triplicates.
(§2) Briefly, the ADP-Glo Kinase Assay Kit was used to determine inhibition of haspin. Kinase Buffer (SignalChem Cat #K01-09; 25 mM MOPS, pH 7.2, 12.5 mM β-glycerol-phosphate, 25 mM MgCl2, 2 mM EDTA) was supplemented with dithiothreitol (DTT) (0.2 mM) and bovine serum albumin (BSA) (40 μg/mL) immediately prior to use. Reaction volumes of 5 μL containing 9 ng/μL kinase, 10 μM ATP, 50 nM inhibitor, and the appropriate peptide substrate (20 μM) were incubated for 3 hours, and then quenched with an equal volume (5 μL) of GLO reagent. After 40 minutes, 10 μL DET reagent was added and incubated for 1 hour before visualization on a Cytation™ 5 Cell Imaging Multi-Mode Reader (BioTek).

[2] = tested on: Molm-14 cells (FLT3-ITD); assay: AML cell line growth inhibition (CellTiter-Blue), 50 nM; format: cell-based; details: Homo sapiens, 50 nM inhibitor conc., means of triplicates, read-out: Percent Inhibition (%) Molm-14 growth
Experimental: as §1
More specifically, cells were cultured to confluence in RPMI medium supplemented with 10% fetal bovine serum and 1× Penicillin-Streptomycin (Gibco™). Cells were plated at 5,000 cells/well in 96 well plates. After 24-hour incubation at 37° C. in a 5% CO2 incubator, compounds diluted in the same media were added to the indicated final concentration and allowed to incubate at 37° C. in a 5% CO2 incubator for 72 hours. Viability was determined using CellTiter-Blue® Cell Viability Assay (Promega, Madison, WI) with absorbance readings at 570 nm performed on a Cytation™ 5 Cell Imaging Multi-Mode Reader (BioTek) 3 hours after addition. Appropriate vehicle and cell-free controls were included. GI50 readings were confirmed by two scientists on two separate days.

[3] = tested on: histone H3 (Thr3) phosphorylation by haspin; assay: Western blot, histone H3 (Thr3) phosphorylation by haspin in Molm-14 cells; format: cell-based, human; details: 24 hours, HSK205 5, 20 or 100 nM, gilteritinib 100 nM
Experimental: Whether Compound HSK205 does indeed inhibit haspin in AML cells was then evaluated, and immunoblotting was performed to confirm inhibition of histone H3 (Thr3)phosphorylation by haspin (FIG. 13A). […] The samples were subsequently analyzed for the phosphorylation of histone H3 (Thr3).
Acute myeloid leukemia cells (Molm-14) were incubated with various concentrations of compound as specified. Cells were collected and lysed, and protein concentrations were quantified relative to BSA standards. After protein denaturation, proteins were separated via SDS-PAGE electrophoresis and transferred to NC membranes. After blocking, overnight incubation with specific primary antibodies, and room temperature incubation for 2 hours with peroxidase-conjugated secondary antibodies, peroxidase activity was detected with SuperSignal West Pico reagents (Thermo Scientific) using a CCD camera LAS-4000 (Fujifilm). Bands were normalized using housekeeping gene, Actin. Values reported represent the means of triplicates and error bars represent SD. All specific antibodies were purchased from Cell Signaling.

[4] = target: T2, FLT3 (Homo sapiens, UniProt P36888); assay: ADP Glo Kinase Assay, FLT3, 50 nM inhibitor; format: biochemical; details: 50 nM inhibitor conc.; means of triplicates; read-out: Percent Inhibition (%) FLT3
T2 sequence (P36888 27-993): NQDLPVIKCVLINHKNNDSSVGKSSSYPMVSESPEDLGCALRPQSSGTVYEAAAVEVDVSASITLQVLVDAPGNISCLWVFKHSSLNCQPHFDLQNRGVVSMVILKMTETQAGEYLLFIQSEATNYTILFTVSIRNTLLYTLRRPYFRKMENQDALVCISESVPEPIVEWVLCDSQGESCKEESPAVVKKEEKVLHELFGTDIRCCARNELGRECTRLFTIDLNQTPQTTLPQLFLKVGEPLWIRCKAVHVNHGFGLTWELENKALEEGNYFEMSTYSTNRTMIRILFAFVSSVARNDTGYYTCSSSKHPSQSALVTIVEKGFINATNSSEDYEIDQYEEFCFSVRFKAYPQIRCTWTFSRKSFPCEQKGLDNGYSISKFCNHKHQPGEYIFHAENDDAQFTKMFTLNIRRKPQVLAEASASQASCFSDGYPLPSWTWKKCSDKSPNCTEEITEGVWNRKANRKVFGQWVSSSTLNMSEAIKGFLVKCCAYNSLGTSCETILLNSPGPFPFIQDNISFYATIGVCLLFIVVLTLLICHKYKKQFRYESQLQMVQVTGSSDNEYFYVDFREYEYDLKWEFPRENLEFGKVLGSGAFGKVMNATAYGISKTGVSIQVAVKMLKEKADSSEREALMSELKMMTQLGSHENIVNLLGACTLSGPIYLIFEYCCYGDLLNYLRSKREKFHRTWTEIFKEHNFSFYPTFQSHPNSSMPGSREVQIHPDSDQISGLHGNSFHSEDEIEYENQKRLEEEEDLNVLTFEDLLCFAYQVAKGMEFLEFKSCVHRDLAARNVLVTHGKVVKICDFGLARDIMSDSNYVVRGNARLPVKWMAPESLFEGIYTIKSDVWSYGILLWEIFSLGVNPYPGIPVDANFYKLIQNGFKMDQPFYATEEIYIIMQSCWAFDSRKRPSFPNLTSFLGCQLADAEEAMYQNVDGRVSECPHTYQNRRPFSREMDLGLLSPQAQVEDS
Experimental: as §1, §2

inhibition at 0.05 µM [1]: 11%
inhibition at 0.05 µM [4]: 93%
Compound: CCc1nc(C(N)=O)c(Nc2ccc(N3CCC(N4CCN(C)CC4)CC3)c(OC)c2)nc1NC1CCOCC1 [gilteritinib, reference compound]
inhibition at 0.05 µM [2]: 87%
phosphorylation of histone H3 (Thr3) [3]: did not display haspin inhibition
